Patent EP0393104B1, “MEASUREMENT OF PGE 2 (PROSTAGLANDIN E 2) LEVELS IN PATIENTS WITH CHRONIC INFLAMMATORY BOWEL DISEASE” (priority 1987, dated 1989)

How the values were obtained:
PGE2 = test: Equilibrium in vivo dialysis of rectum with radioimmunoassay of PGE2 (enema trial); parameters: species or system patients; details: for Concentrations of PGE2 in rectal lumen: median, enema groups irrespective of SAZ (+/-), SAZ line = no enema, with SAZ maintenance; for effect of treatment with enemas on PGE2 concentrations in the rectal lumen: whole group, active UC, 2-4 weeks, 5-ASA p>0.5, prednisolone p<0.05 (Wilcoxon)
Experimental: (§1) The study was carried out as a block-randomized, double-blind trial. Before entry, clinical disease activity was assessed, and equilibrium in vivo dialysis of rectum was performed before the assessment of endoscopic and histologic disease activity. […] Primary stratification was done for patients already on maintenance treatment with SAZ. At day 15 the equilibrium in vivo dialysis of rectum was repeated, and clinical, endoscopic, and histologic activities were reassessed. Patients in complete clinical and endoscopic remission discontinued treatment with enemas, whereas the remainder continued therapy for another 14 days. In all cases equilibrium in vivo dialysis of rectum and assessment of disease activity were repeated at day 29. Withdrawal criteria included intolerance to treatment or deterioration (severe disease, C3) requiring systemic glucocorticoids.
In vivo dialysis of rectum was performed after insertion of a 12-cm-long dialysis bag (volume 4 ml; Visking seamless cellulose tubing 8/32 filled with Rheomacrodex@; Pharmacia, Uppsala, Sweden) containing 10% dextran (mean mol wt 40,000) in saline into the emptied rectum. To obtain equilibrium with the fluid covering the surface of rectal mucosa, the dialysis bag was left for 4 h before its contents were emptied into a test tube, which was stored immediately at -20°C (rectal dialysate) for analysis within 2 wk.
Prostaglandin E2 was measured as previously described in detail (K. Bukhave, J. Rask-Madsen J, 'Prostaglandin E2 in jejunal fluids and its potential diagnostic value for selecting patients with indomethacin-sensitive diarrhoea', 1981 European Journal of Clinical Investigation, 11:191-7) by a radioimmunologic method validated by gas chromatography-mass spectrometry (K. Bukhave, K Green, J. Rask-Madsen, 'Comparison of radioimmunological determinations with gas chromatography mass spectrometry dosage', 1983 Biomedical Mass Spectrometry, 10:265-8). The method included purification by extraction with ethylacetate/cyclo- hexane (1:1) and chromatography on microcolumns of Sephadex LH-20 (Pharmacia AB, Sweden) before performing the radioimmunoassay itself on the eluate fraction containing PGE2.

[1] = system: ulcerative proctosigmoiditis; format: in vivo, patients
Experimental: For patients maintained on SAZ (1 g b.i.d.) this treatment was kept unchanged throughout the trial. No other drugs were given.
as §1
The clinical activity was based on a diary in which the number of bowel movements and the presence or absence of blood were registered by the patient and the objective findings were registered by the investigator. To minimize variation among observers each patient was examined on all study days by the same investigator, who was unaware of the results of the rectal dialyses.

[2] = clinical activity 2-3 (moderate-severe)
[3] = endoscopic activity 0 (inactive)
[4] = endoscopic activity 2 (moderate)
[5] = number of patients, enemas once daily 2-4 wk, 5-ASA n=13, prednisolone n=11
[6] = number of these patients on additional SAZ maintenance (figure in brackets)

Row | SMILES | Concentrations of PGE2 in rectal lumen (PGE2; clinical activity 0 (inactive)) | Concentrations of PGE2 in rectal lumen (PGE2; clinical activity 1 (mild)) | Concentrations of PGE2 in rectal lumen (PGE2; [2]) | Concentrations of PGE2 in rectal lumen (PGE2; [3]) | Concentrations of PGE2 in rectal lumen (PGE2; endoscopic activity 1 (mild)) | Concentrations of PGE2 in rectal lumen (PGE2; [4]) | Concentrations of PGE2 in rectal lumen (PGE2; endoscopic activity 3 (severe)) | PGE2 levels in the rectal lumen (PGE2; only those patients responding to treatment) | effect of treatment with enemas on PGE2 concentrations in the rectal lumen (PGE2) | difficulties in retaining the enemas ([1]; human, in vivo) | Outcome of treatment: Unchanged or worse [1, 5] | Outcome of treatment: Unchanged or worse (on sulfasalazine) [1, 6] | Outcome of treatment: Clinical and endoscopic remission ([1]; number of patients, enemas once daily 2-4 wk, 5-ASA 1000 mg (n=13), prednisolone 25 mg (n=11)) | Outcome of treatment: Clinical but not endoscopic remission [1, 5] | Outcome of treatment: Clinical and endoscopic remission (on SAZ) ([1]; number of these patients on additional SAZ maintenance 2 g/day (figure in brackets)) | Outcome of treatment: Clinical but not endoscopic remission (on SAZ) [1, 6]
1 | Nc1ccc(O)c(C(=O)O)c1 [5-ASA, 5-amino-salicylic acid] | 0.71(n=7) (0.18-6.0) ng/ml | 24(n=5) (2.5-58) ng/ml | 33(n=8) (14-120) ng/ml | 0.75(n=3) (0.18-3.7) ng/ml | 5.5(n=4) (0.29-6.2) ng/ml | 24(n=8) (2.5-58) ng/ml | 31(n=5) (20-120) ng/ml | decreased toward control levels | No significant effects | 2 | 6 | 3 | – | – | – | –
2 | C[C@]12C=CC(=O)C=C1CC[C@@H]1[C@@H]2[C@@H](O)C[C@@]2(C)[C@H]1CC[C@]2(O)C(=O)CO [Prednisolone, prednisolone] | 1.6(n=9) (0.16-5.0) ng/ml | 5.4(n=6) (0.58-42) ng/ml | 9.5(n=3) (5.9-12) ng/ml | 0.82(n=8) (0.16-5.0) ng/ml | 2.8(n=7) (0.57-3.9) ng/ml | 10.5(n=3) (5.5-42) ng/ml | – | – | inhibited PGE2 concentrations significantly | – | 2 (2) | 2 (2) | 8 | 1 (1) | 3 | 1 (1)
